The values below come from patent US6972298B2, “Method of treating or inhibiting neutrophil chemotaxis by administering a MEK inhibitor” (Warner-Lambert Company, priority 2001, dated 2005).

A short description of one series: oral bioavailability. Conditions: in vivo.
The next series deals with IL-8-induced chemotaxis. Conditions: cited from earlier work.
Another series has as its system IL-8 activation of ERK. Kind of series: IL-8 activation of ERK in human PMNs, Western blot with phospho-specific ERK antibody. It is filed as cell-based. As to conditions: for inhibition of IL-8 activation of ERK at 0.1 μM: 0.1 μM inhibitor. The protocol:
Activation of MAPK was examined by phospho-specific ERK antibody in isolated human PMNs that were stimulated with 3 nM of IL-8 for various periods of time (A). […] The effect of the inhibitors was monitored by measuring p-ERK activity by Western blotting. The blots were normalized using the ERK antibody.
(§1) Polymorphonuclear leukocytes (PMNs) were isolated from whole blood obtained from healthy human donors. Plasma was separated from the remainder of the blood using a Dextran density gradient. Red blood cells (RBCs) and PMNs were further isolated by centrifugation at 2500 rpm for 15 minutes, using a Lymphoprep sedimentation solution. RBCs were lysed with 0.2% NaCl, neutralized with 1.8% NaCl, and the remaining neutrophils were resuspended in RPMI binding buffer at a final concentration of 10 million cells/mL.
Neutrophils were preincubated with the respective inhibitor for 30 minutes at room temperature in 1.5-mL microfuge tubes prior to addition of IL-8 (3.125 nM). […] Thus, neutrophils were exposed to IL-8 for 5 minutes at room temperature, after which whole cell lysates were obtained via lysis with RIPA buffer and analyzed by Western blot analysis using phospho specific antibodies, p44/42 MAP (ERK) and p38 MAPK kinase. Standard Western blotting was performed using chemiluminescence. All blots were normalized with the respective nonphosphorylated antibodies.
To confirm IL-8 activation of ERK, neutrophils were stimulated with 3 nM of IL-8 for various periods of time, ranging from 0 to 30 minutes (FIG. 1A).
(§2) The role of PI3K in IL-8 activation of ERK has been controversial. […] In parallel, kinase assays were performed to examine the MEK1/2 activity in response to IL-8.
(In general: In western blotting, separated proteins are transferred to a membrane and probed.)

Another series concerns MEK1/2. Kind of series: kinase assays of MEK1/2 activity in response to IL-8. Conditions: pre-treatment with inhibitor. The series is classed as cell-based, human. How it is done: as §2
Series [1] has as its system IL-8-stimulated neutrophil chemotaxis. Briefly: In vitro neutrophil chemotaxis, IL-8, transwell chamber assay. The series is classed as cell-based, human. As to conditions: for inhibition at 0.01 µM: read-out: inhibition of chemotaxis at 0.01 μM, 0.01 μM inhibitor alone; for IC50: 3.125 nM IL-8, 3 hours. How it is done: Subsequently, the cells were stimulated with 3.125 nM of IL-8 for a period of 3 hours at which time the migrated cells were quantified using a cell sorter as described elsewhere. Percent inhibition was calculated based on the differences in the number of migrated cells compared to IL-8 alone controls.
The migrated cells were quantitated as described, and the percent inhibition was represented.
Number of cells migrated was measured 3 hours after IL-8 stimulation and expressed as percent control. Each value represents the average ±S.E. obtained from at least three different donors with duplicates in each set.
as §1
The neutrophil chemotaxis assay was conducted with 1 million cells per well in […] polycarbonate membrane transwell plates (Corning-Costar, Cambridge, Mass.). The various inhibitors were prepared as 1 or 10 mM stock solutions in dimethyl sulphoxide (DMSO). Inhibitor dilutions were prepared in RPMI binding buffer, maintaining a constant final concentration of DMSO in all conditions. Neutrophils were preincubated with the respective inhibitor in the top well of the plate for 30 minutes at room temperature prior to exposure to IL-8. An equivalent concentration of the respective inhibitor was placed in the bottom well to prevent any concentration gradient. DMSO concentration was maintained in all wells as a vehicle control. […] Neutrophils that migrated completely across the 3-μM filter were quantitated using FACS analysis with appropriate forward and sideward scatter. Percentage inhibition relative to the positive control (IL-8 alone) was calculated for each condition after subtracting the blank reading (no IL-8).

Series [2] concerns IL-8-induced neutrophil recruitment to the skin. Briefly: IL-8 skin recruitment model (in vivo rabbit neutrophil recruitment assay). How it is done:
Three hours after the last dose, animals were injected with ^125I IL-8 (10μCi), and 10 minutes later various doses of cold (unlabeled) IL-8 was injected intradermally at local sites on the back of the rabbits. Sixty minutes later, the animals were sacrificed, punch biopsies were performed, and the radiation in the skin was measured using a gamma counter. Each value represents the average±standard deviation error of three representative experiments with three animals in each group and triplicates within each treatment. The asterisk indicates significant (p<0.05) differences between the respective treatments in control animals versus drug-administered animals. […]
In control rabbits, the vehicle was administered. […] The biopsies were weighed and sample-associated radioactivity was determined using a gamma counter (Packard Model #05005, Downers Grove, Ill.).
In each experiment, triplicate samples were obtained for each experimental condition. In studies where IL-8 was not tested or the highest 1-μg dose of IL-8 was not used, the data is expressed as either raw counts or adjusted counts. […] In dose-response studies where the 1-μg dose of IL-8 was used, the weight-normalization background (vehicle-treated skin) was subtracted from weight-normalized treated samples, and the data was then expressed as a percent maximal response to the 1-μg dose of IL-8. […]

Another series has as its system colon cancer cells. As to conditions: read-out: IC50, decrease of endogenous constitutive MAPK activation or growth in soft agar; cited from earlier work.
The conditions of series [3]: in vivo; cited from earlier work.
A further series has as its system PMNs. Briefly: cytotoxicity on the PMNs. Conditions: higher concentrations of the drug.

Entries after “also recorded” stand apart in the source; their conditions may differ. Where two headings read alike, the source gives them in different places.

Consider `COc1cccc(-c2cc(=O)c3ccccc3o2)c1N` [2-(2-amino-3-methoxy-phenyl)-chromen-4-one], for which the oral bioavailability result in “oral bioavailability” is “orally nonbioavailable”. Further, the “inhibition of IL-8-induced chemotaxis in previous studies” value with IL-8-induced chemotaxis is given as “lack of inhibition”.

As to `O=C(NOCC1CC1)c1ccc(F)c(F)c1Nc1ccc(I)cc1Cl` [2-(2-chloro-4-iodo-phenylamino)-N-cyclopropylmethoxy-3,4-difluoro-benzamide], the “effect on IL-8-induced ERK activation at 0.01 μM” value in the series with IL-8 activation of ERK (0.01 μM inhibitor) is “blocks ERK activation completely”. Also, the “inhibition of IL-8 activation of ERK at 0.1 μM” value in the series on IL-8 activation of ERK was “almost completely blocks; also recorded: completely inhibited”; in the series with IL-8 activation of ERK (listed as 2-(2-Chloro-4-iodo-phenylamino)-N-cyclopropylmethoxy-3,4-difluoro-benzamide), “almost completely blocked”. In addition, in the series with IL-8 activation of ERK (inhibitor 0 to 100 μM for 30 minutes, then IL-8 for 5 minutes), the “inhibition of IL-8 activation of ERK” value is on record as “dose dependent inhibition; also recorded: clearly blocked”. Besides, the “inhibition of IL-8 activation of MEK1/2” value with MEK1/2 is given as “inhibited”. Moreover, the “inhibition of chemotaxis at 0.001 μM” value in series [1] (0.001 μM inhibitor, 3.125 nM IL-8) was “minimal inhibition”. Further, the inhibition at 0.1 µM in [1] (Homo sapiens, Neutrophil, read-out: inhibition of chemotaxis at 0.1 nM IL-8, 0.1 μM inhibitor, 0.1 nM IL-8) is approximately 80%; in series [1] (Homo sapiens, Neutrophil, read-out: inhibition of chemotaxis at 100 nM IL-8, 0.1 μM inhibitor, 100 nM IL-8), approximately 30%. The inhibition at 0.01 µM in series [1] (Homo sapiens, Neutrophil) was approximately 50%. The IC50 in [1] (Homo sapiens, Neutrophil) is 140 nM; in the series with colon cancer cells, 150 nM. Also, in series [1] (maximal block, single agent), the “maximal inhibition of IL-8-induced chemotaxis, compound alone” value amounted to 60%. Further, the “decrease of IL-8-induced neutrophil recruitment in vivo” value in series [2] (30 mg/kg PO three times at 8 hour intervals, higher IL-8 concentrations tested) was approximately 50%. Besides, the “number of neutrophils recruited to the skin” value in series [2] (30 mg/kg PO three times, all IL-8 concentrations tested) was “consistently decreased”. Further, the “bioavailability, as recently described” value in series [3] was “bioavailable”.

Regarding `COC[C@H]1OC(=O)c2coc3c2[C@@]1(C)C1=C(C3=O)[C@@H]2CCC(=O)[C@@]2(C)C[C@H]1OC(C)=O` [Wortmannin, reference compound], the “inhibition of chemotaxis at 0.01 μM” value in [1] (0.01 μM inhibitor alone, 0.01 µM) is listed as 28%. Further, the inhibition at 0.001 µM in series [1] (Homo sapiens, Neutrophil, read-out: inhibition of chemotaxis at 0.001 μM, 0.001 μM inhibitor, 3.125 nM IL-8) lay in the range of 25 to 30%. Besides, in [1] (Homo sapiens, Neutrophil), the inhibition at 0.01 µM is approximately 30% and the IC50 turned out to be 20 nM. The inhibition at 1 µM in series [1] (Homo sapiens, Neutrophil, read-out: inhibition of chemotaxis at 1 μM, 1 μM inhibitor, 3.125 nM IL-8) stood at 100%. In addition, in the series with PMNs, the “cytotoxicity effects on the PMNs” value was “No visible cytotoxicity effects”.

In general, inhibition refers to the share of the control response that was lost under treatment. Broadly, the IC50 is the concentration at which inhibition is half-maximal.
